Read-outs that look alike come from different tables or passages of the source. Where a SMILES comes first, the peptide text is derived from it. The star is where a group is joined. Cbz = O=C(OCc1ccccc1)*
What was measured:
lung A549 xenografts = assay: Subcutaneous xenografts of lung A549 cancer cell line in nude mice; assay type: in vivo
Method: (§1) For the therapeutic effects of the compounds, we examined the effects of CPD1 and CPD24 on various types of cancer xenografts in mice. […] NOD/SCID mice bearing intracranial brain xenografts of glioblastoma LN229 cell line were treated with CPD1.

[1] = tested on: NCI-60 panel cancer cell lines; assay: Cell growth analysis of NCI-60 panel cancer cell lines; assay type: cell-based, human; conditions: FIG. 5C
SUMO1 [2] = target: T1, SUMO1 (Homo sapiens, UniProt P63165); assay: Western and dot blot assays for SUMO1 conjugation and SUMO1 protein levels in LN229 cells; assay type: cell-based; design: analyzed by western blotting for detection of the conjugate and free form of SUMO1 protein and dot blotting for total levels of SUMO1 protein; endogenous in cells; host or cells: LN229 glioblastoma cells
Method: FIG. 2A illustrates how the glioblastoma LN229 cell line was treated with each of compounds of the National Cancer Institute (NCI) Diversity Set IV library and analyzed by western blot assays using SUMO1, SUMO2/3, UB and β-actin antibodies.
(§2) LN229 cell were treated with a series of dilutions of CPD1 and examined by cell viability assay for cell growth inhibition (FIG. 2B). […] Therefore, CPD1 acts as the degrader of SUMO1 protein and inhibitor of SUMO1 conjugation in cancer cells.
(§3) The non-conjugated Flag-tagged SUMO1 (Flag-SUMO1-GV) and the HA-tagged wild type (WT) UB (HA-UB-WT) were co-transfected in LN229 cells.

[3] = tested on: colon cancer PDX (L1206F); assay: Patient derived xenograft of colon cancer (L1206F); assay type: in vivo, mice
Description: (§4) The left two graphs show data for compounds CPD1 and the middle two graphs show data for CPD24 treatment of colon cancer PDX (L1206F). […] The right two graphs show data for compound CPD1 and CPD24 treatment of lung cancer PDX (L1102F). […] The significance of **P<0.01, and ***P<0.001 was statistically analyzed.
as §1

colon HCT116 xenografts = assay: Subcutaneous xenografts of colon HCT116 cancer cell line in nude mice; assay type: in vivo
Method: as §1

lung cancer PDX (L1102F) = assay: Patient derived xenograft of lung cancer (L1102F); assay type: in vivo, mice; conditions: for PDX growth: CPD24 25 and 50 mg/kg, CPD1 100 mg/kg
Description: as §4, §1

[4] = tested on: intracranial glioblastoma LN229 xenografts; assay: Intracranial brain xenografts of glioblastoma LN229 in NOD/SCID mice, Kaplan Meier survival; assay type: in vivo; conditions: intracranial LN229, log rank test
Method: as §1

LN229 cells = assay: Cell viability assay, LN229 cells; assay type: cell-based, human; conditions: for IC50: read-out: Inhibition of Cancer Cell Growth (IC50)
Method: Each of the compounds was used to treat the cancer LN229 cells and examined first by western and dot blot assays for the degradation of SUMO1 protein and then by cell viability assay for the IC50 values of anticancer activity.
as §2

[5] = Pharmacokinetics, tissue distribution and toxicity in mice, intraperitoneal administration; assay type: in vivo
Description: (§5) For example, without limitation, pharmaceutical compositions of this compound (CPD1) can comprise a molecular weight 348 g/mol and the log P value 3.7.

log P = assay type: physicochemical
Description: as §5

[6] = Tolerability across all xenograft mice; assay type: in vivo; conditions: over the treatment period
Method: as §1

SUMO1 [7] = assay: Ubiquitination of Flag-SUMO1 (immunoprecipitation, western blot) in co-transfected LN229 cells; assay type: cell-based, human; conditions: LN229 cells co-transfected with Flag-SUMO1-GV and HA-UB-WT
Description: as §3

SUMO1 [8] = target: T1, SUMO1; assay: Western and dot blot of normal lung epithelial Nuli-1 and lung cancer cells; assay type: cell-based; design: CPD24 treatment reduces SUMO1 conjugation and total levels of SUMO1 protein in the cancer but not normal cells; endogenous in cells
[9] = Homo sapiens, LN-229, LN229 cells

T1 sequence (P63165 1-97 limits assumed): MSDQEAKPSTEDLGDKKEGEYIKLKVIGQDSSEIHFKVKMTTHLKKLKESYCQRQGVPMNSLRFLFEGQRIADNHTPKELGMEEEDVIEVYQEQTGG

Row | SMILES | IC50 (LN229 cells; [9]) [µM] | also measured
1 | O=C(Nc1ccc(Cl)c([N+](=O)[O-])c1)Nc1nc2ccccc2s1 [Compound 1] | ≤ 5 | xenograft progression (lung A549 xenografts): significantly suppressed xenograft progression; cell growth of NCI-60 panel cancer cell lines [1]: significantly inhibits the cell growth of breast, colon, lung, kidney, ovarian, prostate, skin (melanocytic) and blood (leukemic) cancers; conjugated, free form and total levels of SUMO1 protein (SUMO1 [2]; LN229 cells, western and dot blotting): reduces the conjugated, free form and total levels of SUMO1 proteins; selectivity of inhibition of conjugation (SUMO1, SUMO2/3, UB) (SUMO1 [2]; LN229 cells, western blot, FIG. 2A): selectively inhibiting the conjugation of SUMO1 but not SUMO2/3 or UB; body weight of mice [3]: had no effects on the body weight of mice; tumor growth (tumor sizes) [3]: significantly inhibits the tumor growth of the colon cancer PDXs; xenograft progression (colon HCT116 xenografts): significantly suppressed xenograft progression; mouse body weight (lung cancer PDX (L1102F)): no effects of the treatment on mouse body weight; PDX growth (lung cancer PDX (L1102F)): markedly inhibits the PDX growth; survival of xenograft mice [4]: increases the survival of xenograft mice; blood brain barrier crossing ([5]; distribution in brain tumors): can cross the blood brain barrier; toxicity to normal tissues, side effects ([5]; mice, intraperitoneal administration): no toxicity to normal tissues or side effects on mice; pharmacokinetics and tissue distribution ([5]; mouse cancer xenografts, intraperitoneal administration): sufficient for degrading SUMO1 protein in mouse cancer xenografts; logP (log P): 3.7; tolerability, clinical signs [6]: well tolerated over the treatment period with no clinical signs of lethargy, ataxia, paralysis, seizure or weight loss; poly-ubiquitination of SUMO1 protein (SUMO1 [7]): results in the poly-ubiquitination of SUMO1 protein
2 | CC(C)C[C@@H](C=O)NC(=O)[C@H](CC(C)C)NC(=O)[C@H](CC(C)C)NC(=O)OCc1ccccc1 [MG132, reference compound] (Cbz-Leu-Leu-Leu-aldehyde) | – | effect of MG132 on CPD1-induced degradation of SUMO1 protein (SUMO1 [2]; LN229 cells treated with CPD1, followed by MG132): prevents CPD1-induced degradation of SUMO1 protein
3 | N#Cc1cccc(NC(=O)Nc2nc3c(s2)CCCC3)c1 [Compound 59] | ≤ 20 | –
4 | N#Cc1cccc(NC(=O)N2CCc3ccccc3C2)c1 [Compound 47] | > 20 | –
5 | N#Cc1cccc(NC(=O)Nc2nc3ccccc3s2)c1 [Compound 48] | ≤ 20 | –
6 | N#Cc1cccc(NC(=O)NC2Cc3ccccc3C2)c1 [Compound 46] | > 20 | –
7 | CC(C)(C)c1ccc(NC(=O)Nc2nc3ccc(C#N)cc3s2)cc1 [Compound 40] | > 20 | –
8 | N#Cc1ccc2nc(NC(=O)Nc3cccc(Cl)c3)sc2c1 [Compound 24, 1-(3-chlorophenyl)-3-(6-cyano-1,3-benzothiazol-2-yl)urea] | ≤ 5 | xenograft progression (lung A549 xenografts): significantly suppressed xenograft progression; body weight of mice [3]: had no effects on the body weight of mice; tumor growth (tumor sizes) [3]: significantly inhibits the tumor growth of the colon cancer PDXs; xenograft progression (colon HCT116 xenografts): significantly suppressed xenograft progression; mouse body weight (lung cancer PDX (L1102F)): no effects of the treatment on mouse body weight; PDX growth inhibition, potency compared with CPD1 (lung cancer PDX (L1102F); CPD24 25 and 50 mg/kg versus CPD1 100 mg/kg): more potent; PDX growth (lung cancer PDX (L1102F)): markedly inhibits the PDX growth; inhibition of the cell growth, compared with the other representative compounds (LN229 cells; LN229 cells, FIG. 3A): much more potent in inhibition of the cell growth; tolerability, clinical signs [6]: well tolerated over the treatment period with no clinical signs of lethargy, ataxia, paralysis, seizure or weight loss; poly-ubiquitination of SUMO1 protein (SUMO1 [7]): results in the poly-ubiquitination of SUMO1 protein; SUMO1 conjugation and total SUMO1 protein in normal versus cancer cells (SUMO1 [8]): reduces SUMO1 conjugation and total levels of SUMO1 protein only in cancer cells
9 | CC(C)(C)OC(=O)N1CCc2nc(NC(=O)Nc3cccc(C#N)c3)sc2C1 [Compound 49] | ≤ 20 | –
10 | N#Cc1cc(Cl)cc(NC(=O)Nc2nc3ccc(C(F)(F)F)cc3s2)c1 [Compound 115] | ≤ 5 | –
11 | N#Cc1ccc2nc(NC(=O)Nc3ccccc3)sc2c1 [Compound 45] | ≤ 5 | –
12 | N#Cc1cccc(NC(=O)Nc2nc3c(s2)CC(C(N)=O)CC3)c1 (stereo not drawn) [Compound 89] | > 20 | –
13 | O=C(Nc1nc2ccc([N+](=O)[O-])cc2s1)c1ccc(F)cc1 [Compound 25] | > 20 | –
14 | CC(C)(C(=O)Nc1nc2ccc(C#N)cc2s1)c1ccccc1 [Compound 56] | > 20 | –
15 | O=C(Nc1nc2ccccc2s1)Nc1ccccc1Cl [Compound 8] | > 20 | –
16 | N#Cc1ccc2nc(NC(=O)Nc3ccc4ccccc4c3)sc2c1 [Compound 110] | ≤ 20 | –
17 | O=C(Nc1ccc(F)c([N+](=O)[O-])c1)Nc1nc2c(Cl)cccc2s1 [Compound 17] | > 20 | –

Row | SMILES | IC50 (LN229 cells; [9]) [µM] | also measured
18 | N#Cc1cccc(NC(=O)Nc2nc3ccc(C#N)cc3s2)c1 [Compound 66] | ≤ 5 | –
19 | N#Cc1cc(NC(=O)Nc2nc3ccc(Cl)cc3s2)ccc1Cl [Compound 85] | ≤ 5 | –
20 | Cc1nc2ccc(NC(=O)Nc3cccc([N+](=O)[O-])c3)cc2s1 [Compound 22] | ≤ 20 | –
21 | N#Cc1ccc2nc(NC(=O)Nc3ccc(Br)cc3)sc2c1 [Compound 36] | ≤ 5 | –
22 | O=C(Nc1ccc(Cl)c(Cl)c1)Nc1nc2ccc([N+](=O)[O-])cc2s1 [Compound 2] | ≤ 5 | –
23 | Cn1ncc2ccc(NC(=O)Nc3nc4ccc(C#N)cc4s3)cc21 [Compound 111] | > 20 | –
24 | N#Cc1ccc(NC(=O)Nc2nc3ccc(C(F)(F)F)cc3s2)c(Cl)c1 [Compound 116] | ≤ 5 | –
25 | CN(C)C(=O)c1ccc2nc(NC(=O)Nc3cccc(C#N)c3)sc2c1 [Compound 64] | > 20 | –
26 | N#Cc1cccc(NC(=O)Nc2nc3ccc([N+](=O)[O-])cc3s2)c1 [Compound 72] | ≤ 5 | –
27 | N#Cc1ccc(NC(=O)Nc2nc3ccc(Cl)cc3s2)c(F)c1 [Compound 123] | ≤ 20 | –
28 | O=C(Nc1ccc(Cl)cc1)Nc1nc2cccc([N+](=O)[O-])c2s1 [Compound 15] | > 20 | –
29 | COc1cc(NC(=O)Nc2nc3ccc(C#N)cc3s2)ccn1 [Compound 71] | ≤ 5 | –
30 | O=C(Nc1ccc(Cl)cc1)Nc1nc2ccc([N+](=O)[O-])cc2s1 [Compound 18] | – | IC50 (LN229 cells; LN229 cells): > 20 µM
31 | N#Cc1ccc2nc(NC(=O)Nc3cccc(-c4ccc(F)cc4)c3)sc2c1 [Compound 32, 1-(6-cyano-1,3-benzothiazol-2-yl)-3-[3-(4-fluorophenyl)phenyl]urea] | ≤ 5 | –
32 | N#Cc1ccc2nc(NC(=O)Nc3cccc(Br)c3)sc2c1 [Compound 31, 1-(3-bromophenyl)-3-(6-cyano-1,3-benzothiazol-2-yl)urea] | ≤ 5 | –
33 | N#Cc1cc(NC(=O)Nc2nc3ccc(Cl)cc3s2)ccc1Br [Compound 87] | ≤ 5 | –

Reference: patent publication US11731985B2, “Compositions and methods for treating cancer” (Hb Therapeutics Inc., priority 2018, dated 2023)
